From ChEMBL document CHEMBL4387741, “Optimization of novel reversible Bruton's tyrosine kinase inhibitors identified using Tethering-fragment-based screens” (Bioorg Med Chem, 2019)

How the values were obtained:
[1] = system: Tyrosine-protein kinase ABL1 (Homo sapiens), P00519 [Q252H]; assay: Inhibition of human non-phosphorylated ABL1 Q252H mutant (S229 to K512 residues) expressed in mammalian expression system at 1 uM by Kinomescan method relative to control
[2] = molecular target: Aurora kinase B (Homo sapiens) (UniProt Q96GD4); assay: Inhibition of wild-type human partial length AURKB (D25 to A303 residues) expressed in mammalian expression system at 1 uM by Kinomescan method relative to control
[3] = molecular target: Calcium/calmodulin-dependent protein kinase type 1D (Homo sapiens) (UniProt Q8IU85); assay: Inhibition of wild-type human partial length CAMK1D (M1 to K299 residues) expressed in bacterial expression system at 1 uM by Kinomescan method relative to control
[4] = molecular target: Cyclin-dependent kinase 13 (Homo sapiens) (UniProt Q14004); assay: Inhibition of wild-type human partial length CDC2L5 (H675 to S1054 residues) expressed in mammalian expression system at 1 uM by Kinomescan method relative to control
[5] = molecular target: Serine/threonine-protein kinase Chk2 (Homo sapiens) (UniProt O96017); assay: Inhibition of wild-type human partial length CHEK2 (S253 to E574 residues) expressed in bacterial expression system at 1 uM by Kinomescan method relative to control
[6] = molecular target: Macrophage colony-stimulating factor 1 receptor (Homo sapiens) (UniProt P07333); assay: Inhibition of wild-type human partial length CSF1R (I564 to S939 residues) expressed in bacterial expression system at 1 uM by Kinomescan method relative to control
[7] = molecular target: Death-associated protein kinase 2 (Homo sapiens) (UniProt Q9UIK4); assay: Inhibition of wild-type human full length DAPK2 (M1 to S370 residues) expressed in bacterial expression system at 1 uM by Kinomescan method relative to control
[8] = molecular target: Mitogen-activated protein kinase 3 (Homo sapiens) (UniProt P27361); assay: Inhibition of wild-type human full length ERK1 (M1 to P379 residues) expressed in bacterial expression system at 1 uM by Kinomescan method relative to control
[9] = system: eIF-2-alpha kinase GCN2 (Homo sapiens), Q9P2K8 [S808G]; assay: Inhibition of wild-type human partial length GCN2 kinase domain 2 (R585 to T1018 residues) S808G mutant expressed in bacterial expression system at 1 uM by Kinomescan method relative to control
[10] = molecular target: Tyrosine-protein kinase HCK (Homo sapiens) (UniProt P08631); assay: Inhibition of wild-type human full length HCK (M22 to P526 residues) expressed in bacterial expression system at 1 uM by Kinomescan method relative to control
[11] = molecular target: Homeodomain-interacting protein kinase 1 (Homo sapiens) (UniProt Q86Z02); assay: Inhibition of wild-type human partial length HIPK1 (M146 to I555 residues) expressed in mammalian expression system at 1 uM by Kinomescan method relative to control
[12] = molecular target: Dual specificity mitogen-activated protein kinase kinase 6 (Homo sapiens) (UniProt P52564); assay: Inhibition of wild-type human partial length MEK6 (K36 to D334 residues) expressed in bacterial expression system at 1 uM by Kinomescan method relative to control
[13] = molecular target: Serine/threonine-protein kinase 38 (Homo sapiens) (UniProt Q15208); assay: Inhibition of wild-type human partial length NDR1 (N33 to E449 residues) expressed in mammalian expression system at 1 uM by Kinomescan method relative to control
[14] = molecular target: Proto-oncogene tyrosine-protein kinase receptor Ret (Homo sapiens) (UniProt P07949); assay: Inhibition of wild-type human partial length RET (E713 to D1014 residues) expressed in bacterial expression system at 1 uM by Kinomescan method relative to control
[15] = molecular target: Receptor-interacting serine/threonine-protein kinase 2 (Homo sapiens) (UniProt O43353); assay: Inhibition of wild-type human partial length RIPK2 (M1 to K310 residues) expressed in bacterial expression system at 1 uM by Kinomescan method relative to control
[16] = molecular target: TGF-beta receptor type-1 (Homo sapiens) (UniProt P36897); assay: Inhibition of wild-type human partial length TGFBR1 (D179 to M503 residues) expressed in bacterial expression system at 1 uM by Kinomescan method relative to control
[17] = molecular target: Tyrosine-protein kinase ABL1 (Homo sapiens) (UniProt P00519); assay: Inhibition of wild-type human phosphorylated ABL1 (S229 to K512 residues) expressed in mammalian expression system at 10 uM by Kinomescan method relative to control
[18] = molecular target: Activin receptor type-2B (Homo sapiens) (UniProt Q13705); assay: Inhibition of wild-type human ACVR2B (H169 to D504 residues) expressed in bacterial expression system at 10 uM by Kinomescan method relative to control
[19] = molecular target: Calcium/calmodulin-dependent protein kinase type II subunit alpha (Homo sapiens) (UniProt Q9UQM7); assay: Inhibition of wild-type human partial length CAMK2A (M1 to K328 residues) expressed in bacterial expression system at 10 uM by Kinomescan method relative to control
[20] = molecular target: Mitogen-activated protein kinase 3 (Homo sapiens) (UniProt P27361); assay: Inhibition of wild-type human full length ERK1 (M1 to P379 residues) expressed in bacterial expression system at 10 uM by Kinomescan method relative to control
[21] = molecular target: Mitogen-activated protein kinase 1 (Homo sapiens) (UniProt P28482); assay: Inhibition of wild-type human full length ERK2 (M1 to S360 residues) expressed in bacterial expression system at 10 uM by Kinomescan method relative to control
[22] = system: Receptor-type tyrosine-protein kinase FLT3 (Homo sapiens), P36888 [D835H]; assay: Inhibition of human partial length FLT3 D835H mutant (V592 to Y969 residues) expressed in bacterial expression system at 10 uM by Kinomescan method relative to control
[23] = molecular target: Interleukin-1 receptor-associated kinase 1 (Homo sapiens) (UniProt P51617); assay: Inhibition of wild-type human partial length IRAK1 (R194 to S712 residues) expressed in mammalian expression system at 10 uM by Kinomescan method relative to control
[24] = molecular target: Mitogen-activated protein kinase 10 (Homo sapiens) (UniProt P53779); assay: Inhibition of wild-type human partial length JNK3 (V28 to Q422 residues) expressed in mammalian expression system at 10 uM by Kinomescan method relative to control
[25] = molecular target: Dual specificity mitogen-activated protein kinase kinase 5 (Homo sapiens) (UniProt Q13163); assay: Inhibition of wild-type human partial length MEK5 (L98 to P448 residues) expressed in mammalian expression system at 10 uM by Kinomescan method relative to control
[26] = molecular target: Ribosomal protein S6 kinase alpha-3 (Homo sapiens) (UniProt P51812); assay: Inhibition of wild-type human partial length C-terminal RSK2 kinase domain 2 (V402 to S715 residues) expressed in mammalian expression system at 10 uM by Kinomescan method relative to control
[27] = molecular target: Transient receptor potential cation channel subfamily M member 6 (Homo sapiens) (UniProt Q9BX84); assay: Inhibition of wild-type human partial length TRPM6 (Q1723 to I1998 residues) expressed in mammalian expression system at 10 uM by Kinomescan method relative to control

Chain of Mitogen-activated protein kinase 3 (Homo sapiens) (P27361 whole entry, the tested form may be a part): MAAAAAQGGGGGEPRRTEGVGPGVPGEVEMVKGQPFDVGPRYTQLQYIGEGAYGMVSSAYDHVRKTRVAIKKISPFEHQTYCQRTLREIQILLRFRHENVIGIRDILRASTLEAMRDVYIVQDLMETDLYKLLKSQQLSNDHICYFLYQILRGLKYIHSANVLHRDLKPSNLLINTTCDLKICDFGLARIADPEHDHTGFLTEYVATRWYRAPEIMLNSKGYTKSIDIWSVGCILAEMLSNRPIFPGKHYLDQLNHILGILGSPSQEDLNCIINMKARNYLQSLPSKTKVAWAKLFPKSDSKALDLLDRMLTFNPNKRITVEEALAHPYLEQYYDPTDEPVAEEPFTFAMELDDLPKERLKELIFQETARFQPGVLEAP
Chain of Serine/threonine-protein kinase Chk2 (Homo sapiens) (O96017 whole entry, the tested form may be a part): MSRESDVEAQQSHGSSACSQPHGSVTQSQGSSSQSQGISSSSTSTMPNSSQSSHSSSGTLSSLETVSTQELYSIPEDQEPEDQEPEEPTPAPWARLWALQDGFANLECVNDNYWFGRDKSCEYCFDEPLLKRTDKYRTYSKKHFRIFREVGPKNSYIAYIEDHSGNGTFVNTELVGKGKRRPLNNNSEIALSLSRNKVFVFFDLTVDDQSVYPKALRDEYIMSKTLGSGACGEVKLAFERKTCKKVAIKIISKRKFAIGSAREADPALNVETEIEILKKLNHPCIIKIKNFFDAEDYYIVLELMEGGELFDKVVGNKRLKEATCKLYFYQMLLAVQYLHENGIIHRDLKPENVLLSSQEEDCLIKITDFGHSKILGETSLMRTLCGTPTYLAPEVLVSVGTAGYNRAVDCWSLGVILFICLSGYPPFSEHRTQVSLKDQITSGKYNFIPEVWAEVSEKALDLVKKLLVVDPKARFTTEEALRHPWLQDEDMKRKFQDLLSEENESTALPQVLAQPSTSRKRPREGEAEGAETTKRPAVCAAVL
Chain of Dual specificity mitogen-activated protein kinase kinase 5 (Homo sapiens) (Q13163 whole entry, the tested form may be a part): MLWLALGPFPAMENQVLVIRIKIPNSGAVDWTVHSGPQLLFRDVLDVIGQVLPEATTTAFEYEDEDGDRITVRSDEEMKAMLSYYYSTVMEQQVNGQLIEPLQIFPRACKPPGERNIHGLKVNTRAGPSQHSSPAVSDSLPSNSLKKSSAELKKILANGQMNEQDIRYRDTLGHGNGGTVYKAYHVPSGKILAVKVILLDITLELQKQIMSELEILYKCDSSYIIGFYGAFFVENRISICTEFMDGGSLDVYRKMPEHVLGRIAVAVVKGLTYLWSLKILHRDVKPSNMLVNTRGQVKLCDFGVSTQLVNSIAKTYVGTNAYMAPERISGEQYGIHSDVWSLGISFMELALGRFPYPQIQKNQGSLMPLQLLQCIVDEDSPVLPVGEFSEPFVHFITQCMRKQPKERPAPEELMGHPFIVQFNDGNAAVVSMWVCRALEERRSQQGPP
Chain of Ribosomal protein S6 kinase alpha-3 (Homo sapiens) (P51812 whole entry, the tested form may be a part): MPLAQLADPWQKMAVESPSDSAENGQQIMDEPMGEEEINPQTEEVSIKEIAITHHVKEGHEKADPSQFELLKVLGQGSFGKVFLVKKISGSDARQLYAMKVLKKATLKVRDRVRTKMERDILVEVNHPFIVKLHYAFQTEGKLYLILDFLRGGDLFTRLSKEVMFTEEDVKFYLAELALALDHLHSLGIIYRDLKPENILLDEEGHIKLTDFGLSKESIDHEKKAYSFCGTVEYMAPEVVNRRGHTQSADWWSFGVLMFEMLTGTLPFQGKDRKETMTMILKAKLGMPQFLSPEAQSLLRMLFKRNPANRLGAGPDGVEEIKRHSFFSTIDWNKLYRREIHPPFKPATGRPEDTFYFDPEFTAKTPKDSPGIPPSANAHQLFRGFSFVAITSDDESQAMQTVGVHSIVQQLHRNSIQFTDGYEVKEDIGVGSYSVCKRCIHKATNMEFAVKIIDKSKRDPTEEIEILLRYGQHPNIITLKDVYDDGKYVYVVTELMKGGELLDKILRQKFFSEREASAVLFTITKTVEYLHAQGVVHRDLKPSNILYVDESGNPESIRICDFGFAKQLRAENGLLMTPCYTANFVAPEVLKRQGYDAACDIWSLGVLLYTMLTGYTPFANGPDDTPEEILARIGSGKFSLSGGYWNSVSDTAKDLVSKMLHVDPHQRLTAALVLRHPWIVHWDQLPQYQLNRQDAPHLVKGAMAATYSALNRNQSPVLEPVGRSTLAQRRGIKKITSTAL
Chain of Receptor-interacting serine/threonine-protein kinase 2 (Homo sapiens) (O43353 whole entry, the tested form may be a part): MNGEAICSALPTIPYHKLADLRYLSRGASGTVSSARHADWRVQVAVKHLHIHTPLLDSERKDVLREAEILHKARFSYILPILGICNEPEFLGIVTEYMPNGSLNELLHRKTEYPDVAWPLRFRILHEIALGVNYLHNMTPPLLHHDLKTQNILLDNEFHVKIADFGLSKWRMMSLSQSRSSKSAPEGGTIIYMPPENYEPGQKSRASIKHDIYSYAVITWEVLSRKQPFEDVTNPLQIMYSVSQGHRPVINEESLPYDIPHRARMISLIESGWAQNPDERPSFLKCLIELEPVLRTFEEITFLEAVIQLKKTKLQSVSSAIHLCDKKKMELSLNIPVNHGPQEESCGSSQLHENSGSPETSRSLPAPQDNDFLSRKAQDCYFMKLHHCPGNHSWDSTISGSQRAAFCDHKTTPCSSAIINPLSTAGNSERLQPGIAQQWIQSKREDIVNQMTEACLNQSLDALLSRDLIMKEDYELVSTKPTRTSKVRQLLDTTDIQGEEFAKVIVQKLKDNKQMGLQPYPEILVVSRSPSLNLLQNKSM
Chain of Macrophage colony-stimulating factor 1 receptor (Homo sapiens) (P07333 whole entry, the tested form may be a part): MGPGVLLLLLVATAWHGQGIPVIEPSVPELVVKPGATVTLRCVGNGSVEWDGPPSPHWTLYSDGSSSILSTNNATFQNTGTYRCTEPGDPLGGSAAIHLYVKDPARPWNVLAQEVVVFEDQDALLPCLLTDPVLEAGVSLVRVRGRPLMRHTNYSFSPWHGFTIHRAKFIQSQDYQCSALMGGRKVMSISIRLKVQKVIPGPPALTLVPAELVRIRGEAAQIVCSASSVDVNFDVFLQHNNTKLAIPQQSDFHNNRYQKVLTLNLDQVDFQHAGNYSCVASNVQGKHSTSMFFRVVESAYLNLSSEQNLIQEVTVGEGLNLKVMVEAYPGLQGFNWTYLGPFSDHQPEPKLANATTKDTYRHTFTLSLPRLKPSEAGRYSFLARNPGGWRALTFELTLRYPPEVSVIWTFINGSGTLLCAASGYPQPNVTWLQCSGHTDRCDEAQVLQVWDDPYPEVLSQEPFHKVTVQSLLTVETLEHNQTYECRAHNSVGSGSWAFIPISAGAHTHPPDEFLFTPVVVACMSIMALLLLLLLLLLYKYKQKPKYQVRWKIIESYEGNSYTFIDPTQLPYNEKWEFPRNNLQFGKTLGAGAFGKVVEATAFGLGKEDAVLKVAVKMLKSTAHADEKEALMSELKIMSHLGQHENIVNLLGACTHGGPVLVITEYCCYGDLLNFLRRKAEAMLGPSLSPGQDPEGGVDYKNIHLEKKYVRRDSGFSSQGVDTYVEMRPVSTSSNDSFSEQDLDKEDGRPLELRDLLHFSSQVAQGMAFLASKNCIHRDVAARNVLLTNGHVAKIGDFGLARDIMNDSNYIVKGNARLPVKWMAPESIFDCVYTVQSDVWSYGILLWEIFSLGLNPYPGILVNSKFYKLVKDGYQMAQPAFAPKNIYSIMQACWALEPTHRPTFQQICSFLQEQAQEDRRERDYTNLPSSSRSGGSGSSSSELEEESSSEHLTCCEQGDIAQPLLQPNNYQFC
Chain of TGF-beta receptor type-1 (Homo sapiens) (P36897 whole entry, the tested form may be a part): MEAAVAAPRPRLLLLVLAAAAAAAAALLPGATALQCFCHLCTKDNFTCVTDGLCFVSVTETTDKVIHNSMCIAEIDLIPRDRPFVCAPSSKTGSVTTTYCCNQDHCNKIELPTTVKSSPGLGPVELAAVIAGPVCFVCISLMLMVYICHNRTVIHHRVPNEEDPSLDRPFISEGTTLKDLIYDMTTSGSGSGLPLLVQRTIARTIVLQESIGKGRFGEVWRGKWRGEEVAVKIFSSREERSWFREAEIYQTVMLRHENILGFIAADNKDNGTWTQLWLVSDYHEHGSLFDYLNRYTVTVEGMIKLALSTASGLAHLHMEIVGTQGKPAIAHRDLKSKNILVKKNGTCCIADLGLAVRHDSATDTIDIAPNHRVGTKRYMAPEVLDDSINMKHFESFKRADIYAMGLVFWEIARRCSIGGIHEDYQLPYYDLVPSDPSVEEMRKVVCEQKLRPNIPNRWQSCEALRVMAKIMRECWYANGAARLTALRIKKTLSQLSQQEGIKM
Chain of Calcium/calmodulin-dependent protein kinase type II subunit alpha (Homo sapiens) (Q9UQM7 whole entry, the tested form may be a part): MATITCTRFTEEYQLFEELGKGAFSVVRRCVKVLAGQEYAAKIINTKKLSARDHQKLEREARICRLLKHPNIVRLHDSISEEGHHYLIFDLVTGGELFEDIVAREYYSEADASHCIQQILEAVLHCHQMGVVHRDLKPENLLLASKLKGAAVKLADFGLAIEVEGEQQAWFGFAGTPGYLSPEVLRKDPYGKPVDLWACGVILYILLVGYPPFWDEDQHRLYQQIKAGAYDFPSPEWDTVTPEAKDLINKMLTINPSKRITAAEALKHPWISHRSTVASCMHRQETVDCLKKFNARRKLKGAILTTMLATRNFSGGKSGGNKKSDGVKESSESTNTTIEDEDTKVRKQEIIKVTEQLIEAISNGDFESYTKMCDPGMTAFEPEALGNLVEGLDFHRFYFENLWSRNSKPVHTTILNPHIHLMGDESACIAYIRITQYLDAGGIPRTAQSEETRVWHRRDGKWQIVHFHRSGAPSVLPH
Chain of Dual specificity mitogen-activated protein kinase kinase 6 (Homo sapiens) (P52564 whole entry, the tested form may be a part): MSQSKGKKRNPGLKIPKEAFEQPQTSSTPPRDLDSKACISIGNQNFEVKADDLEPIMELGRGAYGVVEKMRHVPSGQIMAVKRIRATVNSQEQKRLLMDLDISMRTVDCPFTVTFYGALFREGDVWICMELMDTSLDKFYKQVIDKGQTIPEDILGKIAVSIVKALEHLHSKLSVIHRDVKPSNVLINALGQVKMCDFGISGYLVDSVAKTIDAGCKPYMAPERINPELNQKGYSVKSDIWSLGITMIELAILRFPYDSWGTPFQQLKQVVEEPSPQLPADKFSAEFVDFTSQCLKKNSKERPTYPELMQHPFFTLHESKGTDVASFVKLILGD

SMILES: O=C(Nc1cccc([C@@H]2CN(c3ncnc4[nH]ccc34)CCN2CCO)c1)Nc1c(F)cccc1N1CCCC1
- inhibition [1]: 55%
- inhibition [2]: 4.4%
- inhibition [3]: 100%
- inhibition [4]: 96%
- inhibition [5]: 69%
- inhibition [6]: 67%
- inhibition [7]: 6.1%
- inhibition [8]: 100%
- inhibition [9]: 95%
- inhibition [10]: 76%
- inhibition [11]: 80%
- inhibition [12]: 92%
- inhibition [13]: 72%
- inhibition [14]: 0.3%
- inhibition [15]: 100%
- inhibition [16]: 71%

SMILES: O=C(Nc1cccc([C@H]2CCCN(c3ncnc4[nH]ccc34)C2)c1)Nc1ccccc1N1CCCC1
- inhibition [17]: 43%
- inhibition [18]: 100%
- inhibition [19]: 77%
- inhibition [20]: 100%
- inhibition [21]: 100%
- inhibition [22]: 1.3%
- inhibition [23]: 80%
- inhibition [24]: 64%
- inhibition [25]: 18%
- inhibition [26]: 100%
- inhibition [27]: 69%
